Data as given in patent publication US20200268793A1, “METHODS AND COMPOSITIONS FOR ALLEVIATING CYTOKINE RELEASE SYNDROME” (MEMORIAL SLOAN-KETTERING CANCER CENTER, priority 2017, published 2020).
“Also recorded” adds a separate entry of the source. Where two headings read alike, the source gives them in different places.

What was measured:
[1] = test system: SCID-beige mice with established intraperitoneal Raji tumors; experiment: CRS mouse model: survival, weight change, toxicity and histopathology after CAR T cell transfer; type: in vivo; conditions: tumor bearing mice after 1928z CAR T cell transfer; for Toxicity as witnessed by weight loss (percent weight change) under treatment: 5 mg/kg intraperitoneally once per day; for CRS-associated mortality (percent survival) under treatment: agent given intraperitoneally once per day for 5 days
Method: Mice were treated under a protocol approved by the MSKCC Institutional Animal Care and Use Committee. CRS Model: 6-8 week old female C.B.Igh-1b/GbmsTac-Prkdc^scidLyst^bgN7 (SCID-beige) mice (Taconic) were intraperitoneally injected with 3 million Raji-GFP-Fluc cells and tumors were left to grow for 20 days. Tumor burden was evaluated by in vivo bioluminescent imaging two days prior to CAR T cell transfer. Outliers, mice with inconsistently higher or lower tumor burdens were excluded from the experiment. Mice were injected intraperitoneally with 30 million CAR^+ T cells in PBS supplemented with 2% Human Serum. Control mice received PBS supplemented with 2% Human Serum. Stress test model: 6-8 week-old male NOD.Cg-Prkdc^scidIl2rg^tmWjl/SzJ (NSG) mice (Jackson Laboratory) were inoculated with 0.5×10^6 NALM-6-GFP-Fluc cells by tail vein injection followed by with 0.2×10^6 or with 0.5×10^6 CAR T cells four days later. Bioluminescence imaging utilized the Xenogen IVIS Imaging System (Xenogen) with Living Image software (Xenogen) for acquisition of imaging datasets. Tumor Burden was assessed as previously described^34.
(§1) Anakinra was administered intraperitoneally at 30 mg/kg once per day for 5 days, starting 5 hours prior to CAR T cell transfer. Anti-murine IL-6 (clone MP5-20F3, BioXcell) and anti-murine IL-6R (clone 15A7, BioXcell) were administered intraperitoneally once per day at 25 mg/kg for the first dose and 12.5 mg/kg for subsequent doses for 5 days starting 5 hours prior to CAR T cell transfer. L-NIL (Enzo Life Sciences) or 1400W (Cayman Chemical) were administered intraperitoneally at 5 mg/kg once per day for 5 days starting 5 hours prior to CAR T cell transfer.
Mice were transferred to the pathology core facility of Memorial Sloan Kettering where they were sacrificed by cardiac puncture. Tissues obtained were fixed in 10% buffered formalin and were further processed for H&E staining and immunohistochemistry.
To model CAR T cell-induced CRS, conditions were established whereby a high number of CD19 CAR T cells engaged a high tumor burden and yielded overt toxicity within 2-3 days^2-5 (FIG. 1A). […] The overall levels of these cytokines, including mIL6, mCCL2, mG-CSF, hIL-3, hIFN-γ, hGM-CSF, hIL-2 correlated strongly with CRS severity and survival (FIGS. 1E-1L and 1S). The xenogeneic nature of this model was taken advantage of to discern the origin of these cytokines and chemokines. Thus, IL-6 was produced by endogenous murine cells while IFN-γ and GM-CSF were products of the CART cells. mIL6 and hIL6.^12, were not elevated in the absence of CART cells (FIGS. 1M-1O, 1T and 5D), establishing that this cardinal feature of CRS was the result a multicellular interaction and not the outcome of a T cell-tumor cell interaction.

[2] = test system: iNOS; experiment: iNOS expression in peritoneal macrophages by intracellular flow cytometry in CRS mice; type: in vivo, mouse; conditions: 18 hours post CAR T cell transfer
Method: as §1
Antibodies were titrated for optimal staining. The following fluorophore conjugated antibodies were used (“h” prefix denotes anti-human, “m” prefix denotes anti-mouse): hCD4 BUV395 (clone RPA-T4, BD), hCD8 PE-Cy7 (clone SK1, eBioscience), hCD3 PerCP-efluor710 (clone OKT3, eBioscience), hCD19 BUV737 (clone SJ25C1, BD), hLNGFR BB515 (clone C40-1457, BD), mF4/80 BV421 and BV711 (clone T45-2342, BD), mLy6C Alexa Fluor 647 and BV786 (clone ER-MP20, AbdSerotec and clone HK1.4, BioLegend respectively), mMHCII BB515 (clone 2G9, BD), mCD11c BV650 (clone N418, BioLegend), mLy6G APC-Fire750 (clone 1A8, BioLegend), mSIGLEC-F PE-CF594 (clone E50-2440, BD), mCD40 BV786 (clone 3/23, BD), mCD40L PE (clone MR1, BD), mCD11b BUV395 (clone M1/70, BD), mNOS2 PE-Cy7 (clone CXNFT, eBioscience). […]

[3] = test system: cognate murine receptor; conditions: cytokines of human origin, cited from earlier work
[4] = test system: cognate human receptor; conditions: cytokines of murine origin; cited from earlier work

With `CC(=N)NCc1cccc(CN)c1` [1400W] the “Toxicity as witnessed by weight loss (percent weight change) under treatment” value [1] was “reversed toxicity” and the “CRS-associated mortality (percent survival) under treatment” value [1] was “significantly prevented mortality”.

In the case of `CC(=N)NCCCC[C@H](N)C(=O)O` [L-NIL, L-N6-(1-iminoethyl)lysine], the “Toxicity as witnessed by weight loss (percent weight change) under treatment” value [1] is reported as “robust reversal of toxicity”.

For “Anakinra: IL-1Ra polypeptide used for IL-1 blockade”, the “CRS-associated mortality (percent survival) under treatment” value [1] was “completely abrogated CRS-related mortality” and the “iNOS+ macrophage fraction” value [2] was “similarly reduced”.

In the case of GM-CSF: cytokine of human origin, the “Human on mouse (active on the cognate murine receptor)” value (from here on “Human on mouse”) [3] is given as “lack of activity; also recorded: No^39”.

For IFNg: cytokine of human origin, the “Human on mouse” value [3] is listed as “No^38” and the “Human on mouse” value ([3]; listed as human IFN-γ) is listed as “lack of activity”.

In the case of IL-8: cytokine of human origin, the “Human on mouse” value [3] is listed as “Yes^40”.

In the case of IL-10: cytokine of human origin, the “Human on mouse” value [3] is listed as “Yes^40”.

In the case of IL-13: cytokine of human origin, the “Human on mouse” value [3] is listed as “Yes^40”.

In the case of IL-17: cytokine of human origin, the “Human on mouse” value [3] is listed as “Yes^40”.

For TNFa, the “Human on mouse” value [3] is given as “Partial^40” and the “Human on mouse” value ([3]; listed as Human TNF-α) is given as “can signal through the murine p55 TNF receptor but not the p75 TNF receptor”.

For “human CD40L: CD40 ligand, mainly expressed by T cells”, the “Human on mouse” value [3] is listed as “does not functionally interact”.

B1: IL-6: cytokine of murine origin (protein, UniProt P08505 25-211, looked up)
Interleukin-6: FPTSQVRRGDFTEDTTPNRPVYTTSQVGGLITHVLWEIVEMRKELCNGNSDCMNNDDALAENNLKLPEIQRNDGCYQTGYNQEICLLKISSGLLEYHSYLEYMKNNLKDNKKDKARVLQRDTETLIHIFNQEVKDLHKIVLPTPISNALLTDKLESQKEWLRTKTIQFILKSLEEFLKVTLRSTRQT
In the case of B1, the “Mouse on human (active on the cognate human receptor)” value (“Mouse on human” below) [4] is given as “No^39”.

B2: IL-15: cytokine of murine origin (protein, UniProt P48346 49-162, looked up)
Interleukin-15: NWIDVRYDLEKIESLIQSIHIDTTLYTDSDFHPSCKVTAMNCFLLELQVILHEYSNMTLNETVRNVLYLANSTLSSNKNVAESGCKECEELEEKTFTEFLQSFIRIVQMFINTS
For B2, the “Mouse on human” value [4] is listed as “Yes^39”.

B3: IL-5: cytokine of murine origin (protein, UniProt P04401 21-133, looked up)
Interleukin-5: MEIPMSTVVKETLTQLSAHRALLTSNETMRLPVPTHKNHQLCIGEIFQGLDILKNQTVRGGTVEMLFQNLSLIKKYIDRQKEKCGEERRRTRQFLDYLQEFLGVMSTEWAMEG
For B3, the “Mouse on human” value [4] is listed as “Yes^40”.
